Reference: US12497365B2, “4-pyridinyl formamide compound or derivative thereof, preparation method therefor, herbicidal composition and use thereof” (Qingdao Kingagroot Chemical Compound Co., Ltd., priority 2019, dated 2025)

How the values were obtained:
Assay in all cases: Weeding effect in post-emergence stage
Format in all cases: in vivo
Settings in all cases: active ingredient 2000 g/ha, 3 weeks after application, fresh weight control rate
Descurainia sophia = test system: Descurainia sophia
How it was run: (§1)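 Seeds were covered with 0.5-2 cm soil and raised in a greenhouse for 2 weeks. At the 2-3 leaf stage, compound formulations (acetone, Tween 80, 1.5 liter/ha methyl oleate EC, water) were spray-tower applied at 2000-125 g/ha. After 3 further weeks, fresh weight control was graded.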

Abutilon theophrasti = test system: Abutilon theophrasti
How it was run: as §1

Chenopodium album = test system: Chenopodium album
How it was run: as §1

[1] = test system: Amaranthus retroflexus L.
How it was run: as §1

## Cn1nnnc1NC(=O)c1ccnc(-c2cccc(Cl)c2Cl)c1Cl [Compound 1-87]
Descurainia sophia
  Weeding effect, activity level (growth control rate), Descurainia sophia: 5 (Level 5: growth control rate is above 85%)
Abutilon theophrasti
  Weeding effect, activity level (growth control rate), Abutilon theophrasti: 5 (Level 5: growth control rate is above 85%)
Chenopodium album
  Weeding effect, activity level (growth control rate), Chenopodium album: 5 (Level 5: growth control rate is above 85%)
[1]
  Weeding effect, activity level (growth control rate), Amaranthus retroflexus L.: 5 (Level 5: growth control rate is above 85%)

## Cn1nnnc1NC(=O)c1ccnc(-c2ccc(Cl)c(Cl)c2)c1Cl [Compound 1-88]
Descurainia sophia
  Weeding effect, activity level (growth control rate), Descurainia sophia: 5 (Level 5: growth control rate is above 85%)
Abutilon theophrasti
  Weeding effect, activity level (growth control rate), Abutilon theophrasti: 5 (Level 5: growth control rate is above 85%)
Chenopodium album
  Weeding effect, activity level (growth control rate), Chenopodium album: 5 (Level 5: growth control rate is above 85%)
[1]
  Weeding effect, activity level (growth control rate), Amaranthus retroflexus L.: 5 (Level 5: growth control rate is above 85%)

## Cn1nnnc1NC(=O)c1ccnc(-c2cc(Cl)cc(Cl)c2)c1Cl [Compound 1-89]
Descurainia sophia
  Weeding effect, activity level (growth control rate), Descurainia sophia: 5 (Level 5: growth control rate is above 85%)
Abutilon theophrasti
  Weeding effect, activity level (growth control rate), Abutilon theophrasti: 5 (Level 5: growth control rate is above 85%)
Chenopodium album
  Weeding effect, activity level (growth control rate), Chenopodium album: 5 (Level 5: growth control rate is above 85%)
[1]
  Weeding effect, activity level (growth control rate), Amaranthus retroflexus L.: 5 (Level 5: growth control rate is above 85%)

## Cn1nnnc1NC(=O)c1ccnc(-c2cc(F)cc(Cl)c2)c1Cl [Compound 1-90]
Descurainia sophia
  Weeding effect, activity level (growth control rate), Descurainia sophia: 5 (Level 5: growth control rate is above 85%)
Abutilon theophrasti
  Weeding effect, activity level (growth control rate), Abutilon theophrasti: 5 (Level 5: growth control rate is above 85%)
Chenopodium album
  Weeding effect, activity level (growth control rate), Chenopodium album: 5 (Level 5: growth control rate is above 85%)
[1]
  Weeding effect, activity level (growth control rate), Amaranthus retroflexus L.: 5 (Level 5: growth control rate is above 85%)

## Cn1nnnc1NC(=O)c1ccnc(-c2ccc(Cl)c(F)c2)c1Cl [Compound 1-91]
Descurainia sophia
  Weeding effect, activity level (growth control rate), Descurainia sophia: 5 (Level 5: growth control rate is above 85%)
Abutilon theophrasti
  Weeding effect, activity level (growth control rate), Abutilon theophrasti: 5 (Level 5: growth control rate is above 85%)
Chenopodium album
  Weeding effect, activity level (growth control rate), Chenopodium album: 5 (Level 5: growth control rate is above 85%)
[1]
  Weeding effect, activity level (growth control rate), Amaranthus retroflexus L.: 5 (Level 5: growth control rate is above 85%)

## Cn1nnnc1NC(=O)c1ccnc(-c2ccc(F)c(Cl)c2)c1Cl [Compound 1-92]
Descurainia sophia
  Weeding effect, activity level (growth control rate), Descurainia sophia: 5 (Level 5: growth control rate is above 85%)
Abutilon theophrasti
  Weeding effect, activity level (growth control rate), Abutilon theophrasti: 5 (Level 5: growth control rate is above 85%)
Chenopodium album
  Weeding effect, activity level (growth control rate), Chenopodium album: 5 (Level 5: growth control rate is above 85%)
[1]
  Weeding effect, activity level (growth control rate), Amaranthus retroflexus L.: 5 (Level 5: growth control rate is above 85%)

## Cn1nnnc1NC(=O)c1ccnc(-c2cccc(Cl)c2F)c1Cl [Compound 1-93]
Descurainia sophia
  Weeding effect, activity level (growth control rate), Descurainia sophia: 5 (Level 5: growth control rate is above 85%)
Abutilon theophrasti
  Weeding effect, activity level (growth control rate), Abutilon theophrasti: 5 (Level 5: growth control rate is above 85%)
Chenopodium album
  Weeding effect, activity level (growth control rate), Chenopodium album: 5 (Level 5: growth control rate is above 85%)
[1]
  Weeding effect, activity level (growth control rate), Amaranthus retroflexus L.: 5 (Level 5: growth control rate is above 85%)

## Cn1nnnc1NC(=O)c1ccnc(-c2ccc(F)cc2Cl)c1Cl [Compound 1-94]
Descurainia sophia
  Weeding effect, activity level (growth control rate), Descurainia sophia: 5 (Level 5: growth control rate is above 85%)
Abutilon theophrasti
  Weeding effect, activity level (growth control rate), Abutilon theophrasti: 5 (Level 5: growth control rate is above 85%)
Chenopodium album
  Weeding effect, activity level (growth control rate), Chenopodium album: 5 (Level 5: growth control rate is above 85%)
[1]
  Weeding effect, activity level (growth control rate), Amaranthus retroflexus L.: 5 (Level 5: growth control rate is above 85%)

## Cn1nnnc1NC(=O)c1ccnc(-c2ccc(Cl)cc2F)c1Cl [Compound 1-95]
Descurainia sophia
  Weeding effect, activity level (growth control rate), Descurainia sophia: 5 (Level 5: growth control rate is above 85%)
Abutilon theophrasti
  Weeding effect, activity level (growth control rate), Abutilon theophrasti: 5 (Level 5: growth control rate is above 85%)
Chenopodium album
  Weeding effect, activity level (growth control rate), Chenopodium album: 5 (Level 5: growth control rate is above 85%)
[1]
  Weeding effect, activity level (growth control rate), Amaranthus retroflexus L.: 5 (Level 5: growth control rate is above 85%)

## Cn1nnnc1NC(=O)c1ccnc(-c2cc(Br)ccc2Br)c1Cl [Compound 1-96]
Descurainia sophia
  Weeding effect, activity level (growth control rate), Descurainia sophia: 5 (Level 5: growth control rate is above 85%)
Abutilon theophrasti
  Weeding effect, activity level (growth control rate), Abutilon theophrasti: 5 (Level 5: growth control rate is above 85%)
Chenopodium album
  Weeding effect, activity level (growth control rate), Chenopodium album: 5 (Level 5: growth control rate is above 85%)
[1]
  Weeding effect, activity level (growth control rate), Amaranthus retroflexus L.: 5 (Level 5: growth control rate is above 85%)

## Cn1nnnc1NC(=O)c1ccnc(-c2cccc(Br)c2F)c1Cl [Compound 1-97]
Descurainia sophia
  Weeding effect, activity level (growth control rate), Descurainia sophia: 5 (Level 5: growth control rate is above 85%)
Abutilon theophrasti
  Weeding effect, activity level (growth control rate), Abutilon theophrasti: 5 (Level 5: growth control rate is above 85%)
Chenopodium album
  Weeding effect, activity level (growth control rate), Chenopodium album: 5 (Level 5: growth control rate is above 85%)
[1]
  Weeding effect, activity level (growth control rate), Amaranthus retroflexus L.: 5 (Level 5: growth control rate is above 85%)

## COC(=O)c1cc(-c2nccc(C(=O)Nc3nnnn3C)c2Cl)ccc1Cl [Compound 1-98]
Descurainia sophia
  Weeding effect, activity level (growth control rate), Descurainia sophia: 5 (Level 5: growth control rate is above 85%)
Abutilon theophrasti
  Weeding effect, activity level (growth control rate), Abutilon theophrasti: 5 (Level 5: growth control rate is above 85%)
Chenopodium album
  Weeding effect, activity level (growth control rate), Chenopodium album: 5 (Level 5: growth control rate is above 85%)
[1]
  Weeding effect, activity level (growth control rate), Amaranthus retroflexus L.: 5 (Level 5: growth control rate is above 85%)

## COc1ccc(-c2nccc(C(=O)Nc3nnnn3C)c2Cl)cc1C=O [Compound 1-99]
Descurainia sophia
  Weeding effect, activity level (growth control rate), Descurainia sophia: 5 (Level 5: growth control rate is above 85%)
Abutilon theophrasti
  Weeding effect, activity level (growth control rate), Abutilon theophrasti: 5 (Level 5: growth control rate is above 85%)
Chenopodium album
  Weeding effect, activity level (growth control rate), Chenopodium album: 5 (Level 5: growth control rate is above 85%)
[1]
  Weeding effect, activity level (growth control rate), Amaranthus retroflexus L.: 5 (Level 5: growth control rate is above 85%)

## Cn1nnnc1NC(=O)c1ccnc(-c2cc(C(=O)O)cc([N+](=O)[O-])c2)c1Cl [Compound 1-100]
Descurainia sophia
  Weeding effect, activity level (growth control rate), Descurainia sophia: 5 (Level 5: growth control rate is above 85%)
Abutilon theophrasti
  Weeding effect, activity level (growth control rate), Abutilon theophrasti: 5 (Level 5: growth control rate is above 85%)
Chenopodium album
  Weeding effect, activity level (growth control rate), Chenopodium album: 5 (Level 5: growth control rate is above 85%)
[1]
  Weeding effect, activity level (growth control rate), Amaranthus retroflexus L.: 5 (Level 5: growth control rate is above 85%)

## Cn1nnnc1NC(=O)c1ccnc(-c2ccc(Cl)cc2C(F)(F)F)c1Cl [Compound 1-101]
Descurainia sophia
  Weeding effect, activity level (growth control rate), Descurainia sophia: 5 (Level 5: growth control rate is above 85%)
Abutilon theophrasti
  Weeding effect, activity level (growth control rate), Abutilon theophrasti: 5 (Level 5: growth control rate is above 85%)
Chenopodium album
  Weeding effect, activity level (growth control rate), Chenopodium album: 5 (Level 5: growth control rate is above 85%)
[1]
  Weeding effect, activity level (growth control rate), Amaranthus retroflexus L.: 5 (Level 5: growth control rate is above 85%)

## COc1ccc(-c2nccc(C(=O)Nc3nnnn3C)c2Cl)c(Cl)c1 [Compound 1-102]
Descurainia sophia
  Weeding effect, activity level (growth control rate), Descurainia sophia: 5 (Level 5: growth control rate is above 85%)
Abutilon theophrasti
  Weeding effect, activity level (growth control rate), Abutilon theophrasti: 5 (Level 5: growth control rate is above 85%)
Chenopodium album
  Weeding effect, activity level (growth control rate), Chenopodium album: 5 (Level 5: growth control rate is above 85%)
[1]
  Weeding effect, activity level (growth control rate), Amaranthus retroflexus L.: 5 (Level 5: growth control rate is above 85%)
